Results as given in patent publication US20160366886A1, “BIOCIDAL COMPOSITION, PREPARATION AND METHODS OF USE THEREOF” (BROMINE COMPOUNDS LTD., priority 2014, published 2016).

How the values were obtained:
[1] = system: Pseudomonas aeruginosa (ATCC 15442); experiment: Biocidal activity against simulated biofilm (bacteria entrapped in alginate gel beads), surviving CFU; assay type: cell-based; conditions: for time of total kill: alginate beads, pH 7
From the text: A biofilm simulation system developed by the Biofilm Bozeman Institute Montana (Grobe K. J., Zahler J., and Stewart P. S., 2002 in “Role of dose concentration in biocide efficacy against Pseudomonas aeruginosa Biofilms”, J. Industrial Microbiology & Biotechnology, vol. 29, pp 10-15), was used in this experiment to evaluate the efficacy of biocidal solutions against biofilm.
The biofilm simulation was created by entrapping bacteria in alginate gel beads. A plate of R2A agar was streaked with Pseudomonas aeruginosa (ATCC 15442) and incubated at 35° C. overnight. Buffer phosphate at pH 7.2 was used to scrap off the bacteria from the agar plate and to create a suspension. The bacterial suspension was mixed with an equal volume of an aqueous 4% sodium alginate solution, to make a final 2% alginate solution. The alginate and bacterial slurry were placed in a 50 ml syringe attached to a 22 gauge needle, connected to a compressed air tank, allowing the syringe to be pressurized. At 20 psig pressure a stream of small drops was forced out and dropped into a stirred solution of 50 mM CaCl2. The Ca^+2 cross linked the alginate, and semi solid beads with entrapped bacterial cells were formed. The beads were allowed to stir in the CaCl2 solution for about 20 minutes, and then rinsed in a dilute 5 mM CaCl2 solution. Several flasks containing 100 beads each were incubated overnight at 35° C. on a rotating shaker in a buffer solution (at pH 7) with 5 mM addition of CaCl2 to maintain the beads structure. The resulting beads diameter is about 2 mm
At the beginning of the experiment, the supernatant of the beads buffer suspension containing 5 mM CaCl2 was decanted and replaced by the 100 ml biocide solution with the required concentration (between 0.5, 1, 2.5 and 5 ppm as total Cl2).
After different interval contact times, 10 beads were removed and placed in a 5 g/l sodium thiosulfate solution containing 50 mM sodium citrate. The sodium citrate was used to dissolve the alginate gel and release the bacteria into the solution. The neutralizer-citrate solution was placed in the refrigerator for 2 hours, than diluted and placed on R2A agar plates using pour plate technique. The plates were incubated at 35° C. for 24-48 hours and counted. The efficacy and toxicity of the neutralizer were checked as well as a control experiment without biocide addition. Four concentrations (0.5, 1, 2.5 and 5 ppm) were tested at four different contact times (5, 15, 30, and 60 min) FIGS. 1-10 describe the surviving colony forming units (CFU) of the bacteria after the biocide treatment at different contact times.

[2] = Stability of the aqueous biocide solution (total active chlorine as Cl2 over time); assay type: physicochemical
From the text: The concentration of the active chlorine is based on the measurement of total chlorine (as Cl2). The term “as Cl2” refers to the measurement of the active chlorine as total chlorine.

[3] = 1 ppm dose, contact time not stated

| Compound | log reduction of microbe concentration ([1]; 0.5 ppm dose, contact time not stated) [log] | active chlorine reading (as Cl2) ([2]; after 20.3 hrs) [ppm] | active chlorine remaining, percent of initial ([2]; after 20.3 hrs) [%] | active chlorine reading (as Cl2) ([2]; after 44.4 hrs) [ppm] | active chlorine remaining, percent of initial ([2]; after 44.4 hrs) [%] | time the solution / active Cl2 level stayed stable (unchanged) ([2]; aqueous solution about 500 ppm as Cl2) [h] | total active Cl2 found after mixing ([2]; freshly mixed solution, expected 500 ppm as Cl2) [ppm] | effect on the microbe concentration ([1]; 0.5 ppm dose) | effect on the microbe concentration ([1]; 1 ppm dose) | log reduction of microbe concentration [1, 3] [log] | time of total kill ([1]; 2.5 ppm dose (as total Cl2)) [min] | time of total kill ([1]; 5 ppm dose (as total Cl2)) [min] | log reduction of microbe concentration ([1]; 2.5 ppm dose, after 60 min) | log reduction of microbe concentration ([1]; 2.5 ppm dose, contact time not stated) [log] |
| --- | --- | --- | --- | --- | --- | --- | --- | --- | --- | --- | --- | --- | --- | --- |
| NCl [chloramine] | 4 | 493 | 91 | 223 | 41.4 | 2 | 539 |  |  |  |  |  |  |  |
| O=c1n(Cl)c(=O)n(Cl)c(=O)n1Cl [TCCA, trichloroisocyanuric acid] |  |  |  |  |  |  |  | almost no activity | almost no activity | 1 | 60 | 30 |  |  |
| O=c1nc([O-])n(Cl)c(=O)n1Cl.[Na+] [NaDCC, sodium dichloroisocyanurate] |  |  |  |  |  |  |  | almost no activity | almost no activity | 1 | 60 | 30 | more than 4 log |  |
| [Na+].[O-]Cl [NaOCl] |  |  |  |  |  |  |  | no effect was observed at all |  | 1 |  | 60 | 1 log | 1 |
